Source: ChEMBL document CHEMBL3991601, “The target landscape of clinical kinase drugs” (Science, 2017)
Calls of active or inactive are those of the source. For most assays here, no stated cut-off is given here; in the data, actives have a measured Kd and inactives only a lower limit.

Experiments:
Aurora kinase B = Aurora kinase B (Homo sapiens, UniProt Q96GD4)
Myosin-14 = Myosin-14 (Homo sapiens, UniProt Q7Z406)
[1] = target: T1, Dynamin-like GTPase OPA1, mitochondrial (Homo sapiens, UniProt O60313)
T1 sequence (O60313 whole entry): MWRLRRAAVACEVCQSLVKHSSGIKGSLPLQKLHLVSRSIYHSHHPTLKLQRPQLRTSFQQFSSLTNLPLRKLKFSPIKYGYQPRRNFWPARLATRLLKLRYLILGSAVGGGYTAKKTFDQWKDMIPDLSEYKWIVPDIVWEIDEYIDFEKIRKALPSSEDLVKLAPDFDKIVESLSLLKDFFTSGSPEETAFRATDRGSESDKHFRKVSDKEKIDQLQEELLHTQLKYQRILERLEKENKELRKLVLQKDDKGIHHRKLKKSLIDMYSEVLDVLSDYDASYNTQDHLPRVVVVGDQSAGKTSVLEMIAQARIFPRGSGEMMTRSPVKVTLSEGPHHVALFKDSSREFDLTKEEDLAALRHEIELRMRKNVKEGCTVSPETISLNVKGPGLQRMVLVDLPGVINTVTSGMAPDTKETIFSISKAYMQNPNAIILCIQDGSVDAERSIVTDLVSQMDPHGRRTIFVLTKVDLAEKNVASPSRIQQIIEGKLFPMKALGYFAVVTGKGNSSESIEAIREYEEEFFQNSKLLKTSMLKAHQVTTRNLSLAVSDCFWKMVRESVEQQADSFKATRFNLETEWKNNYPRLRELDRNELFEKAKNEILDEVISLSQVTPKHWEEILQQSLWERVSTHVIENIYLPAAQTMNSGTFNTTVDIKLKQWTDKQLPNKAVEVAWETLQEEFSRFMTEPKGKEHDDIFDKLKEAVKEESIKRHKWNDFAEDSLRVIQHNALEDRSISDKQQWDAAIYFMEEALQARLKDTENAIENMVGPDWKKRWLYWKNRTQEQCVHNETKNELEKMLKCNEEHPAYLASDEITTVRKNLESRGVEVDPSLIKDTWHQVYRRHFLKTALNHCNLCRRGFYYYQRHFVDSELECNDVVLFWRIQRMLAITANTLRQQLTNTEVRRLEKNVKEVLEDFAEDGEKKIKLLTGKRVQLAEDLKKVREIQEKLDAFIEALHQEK

[2] = target: Serine/threonine-protein kinase N1 (Homo sapiens, UniProt Q16512)
Chain of Serine/threonine-protein kinase N1 (Q16512 whole entry): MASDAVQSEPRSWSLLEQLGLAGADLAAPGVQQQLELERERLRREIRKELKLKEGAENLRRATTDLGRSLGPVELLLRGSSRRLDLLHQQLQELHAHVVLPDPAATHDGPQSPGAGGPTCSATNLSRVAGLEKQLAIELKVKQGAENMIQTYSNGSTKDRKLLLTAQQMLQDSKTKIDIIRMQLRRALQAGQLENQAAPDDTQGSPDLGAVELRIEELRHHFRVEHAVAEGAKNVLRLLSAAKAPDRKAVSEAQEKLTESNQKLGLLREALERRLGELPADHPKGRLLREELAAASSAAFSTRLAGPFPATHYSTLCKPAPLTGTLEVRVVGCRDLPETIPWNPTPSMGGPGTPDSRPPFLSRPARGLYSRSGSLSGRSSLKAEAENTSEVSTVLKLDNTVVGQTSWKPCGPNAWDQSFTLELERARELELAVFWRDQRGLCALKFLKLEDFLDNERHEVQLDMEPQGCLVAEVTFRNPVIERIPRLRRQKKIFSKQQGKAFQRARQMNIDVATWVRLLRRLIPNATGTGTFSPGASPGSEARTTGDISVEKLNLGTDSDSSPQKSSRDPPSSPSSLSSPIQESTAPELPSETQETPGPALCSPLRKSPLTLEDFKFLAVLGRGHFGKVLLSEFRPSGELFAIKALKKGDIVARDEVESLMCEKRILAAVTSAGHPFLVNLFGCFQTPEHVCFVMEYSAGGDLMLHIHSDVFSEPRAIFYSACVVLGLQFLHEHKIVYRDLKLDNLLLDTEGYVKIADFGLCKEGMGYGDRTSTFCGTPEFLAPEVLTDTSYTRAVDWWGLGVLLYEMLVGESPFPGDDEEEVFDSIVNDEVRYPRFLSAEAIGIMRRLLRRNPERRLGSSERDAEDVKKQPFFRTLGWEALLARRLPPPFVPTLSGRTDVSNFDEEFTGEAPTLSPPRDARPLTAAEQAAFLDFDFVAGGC

[3] = target: Protein kinase C beta type (Homo sapiens, UniProt P05771)
Chain of Protein kinase C beta type (P05771 whole entry): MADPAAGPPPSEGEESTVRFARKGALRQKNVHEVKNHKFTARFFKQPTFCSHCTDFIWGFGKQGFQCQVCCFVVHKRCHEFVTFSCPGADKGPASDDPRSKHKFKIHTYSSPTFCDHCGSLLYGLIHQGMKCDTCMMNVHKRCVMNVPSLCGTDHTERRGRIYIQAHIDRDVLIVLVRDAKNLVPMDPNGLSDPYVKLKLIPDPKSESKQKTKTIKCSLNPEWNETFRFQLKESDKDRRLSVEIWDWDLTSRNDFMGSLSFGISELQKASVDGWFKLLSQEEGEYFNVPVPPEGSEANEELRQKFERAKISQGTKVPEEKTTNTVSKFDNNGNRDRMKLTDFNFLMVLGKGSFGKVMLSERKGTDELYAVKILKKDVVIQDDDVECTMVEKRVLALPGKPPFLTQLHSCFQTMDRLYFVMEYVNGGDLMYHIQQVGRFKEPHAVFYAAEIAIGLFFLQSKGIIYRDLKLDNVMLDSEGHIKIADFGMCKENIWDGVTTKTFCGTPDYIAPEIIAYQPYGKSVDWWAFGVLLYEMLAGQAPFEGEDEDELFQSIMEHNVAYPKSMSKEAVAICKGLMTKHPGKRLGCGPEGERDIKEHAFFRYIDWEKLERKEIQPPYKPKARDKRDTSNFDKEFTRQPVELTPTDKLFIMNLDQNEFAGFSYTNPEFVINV

[4] = target: T2, Serine/threonine-protein kinase TAO3 (Homo sapiens, UniProt Q9H2K8)
T2 sequence (Q9H2K8 whole entry): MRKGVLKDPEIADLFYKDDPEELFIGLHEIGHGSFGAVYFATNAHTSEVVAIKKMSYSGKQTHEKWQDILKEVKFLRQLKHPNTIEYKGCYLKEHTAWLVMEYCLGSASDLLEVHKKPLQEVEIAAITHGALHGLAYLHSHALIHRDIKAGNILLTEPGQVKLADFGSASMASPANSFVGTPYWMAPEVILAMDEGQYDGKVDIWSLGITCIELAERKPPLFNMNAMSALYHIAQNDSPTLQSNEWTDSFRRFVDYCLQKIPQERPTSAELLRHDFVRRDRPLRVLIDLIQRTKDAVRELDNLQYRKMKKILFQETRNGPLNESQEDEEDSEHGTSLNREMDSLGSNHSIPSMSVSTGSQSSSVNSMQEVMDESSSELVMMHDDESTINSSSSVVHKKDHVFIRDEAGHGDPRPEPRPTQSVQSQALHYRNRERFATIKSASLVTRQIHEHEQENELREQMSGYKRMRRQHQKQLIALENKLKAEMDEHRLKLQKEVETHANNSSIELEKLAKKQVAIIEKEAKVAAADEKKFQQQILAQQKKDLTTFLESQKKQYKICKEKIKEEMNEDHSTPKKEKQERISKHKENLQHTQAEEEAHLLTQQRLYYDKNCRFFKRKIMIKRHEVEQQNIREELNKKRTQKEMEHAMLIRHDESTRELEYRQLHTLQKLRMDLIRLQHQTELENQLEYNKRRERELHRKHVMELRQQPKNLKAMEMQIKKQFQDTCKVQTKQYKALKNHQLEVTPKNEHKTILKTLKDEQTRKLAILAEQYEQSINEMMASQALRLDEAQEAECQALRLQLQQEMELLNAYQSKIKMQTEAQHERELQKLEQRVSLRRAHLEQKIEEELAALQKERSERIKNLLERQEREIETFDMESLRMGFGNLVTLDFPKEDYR

Chain of Myosin-14 (Q7Z406 whole entry): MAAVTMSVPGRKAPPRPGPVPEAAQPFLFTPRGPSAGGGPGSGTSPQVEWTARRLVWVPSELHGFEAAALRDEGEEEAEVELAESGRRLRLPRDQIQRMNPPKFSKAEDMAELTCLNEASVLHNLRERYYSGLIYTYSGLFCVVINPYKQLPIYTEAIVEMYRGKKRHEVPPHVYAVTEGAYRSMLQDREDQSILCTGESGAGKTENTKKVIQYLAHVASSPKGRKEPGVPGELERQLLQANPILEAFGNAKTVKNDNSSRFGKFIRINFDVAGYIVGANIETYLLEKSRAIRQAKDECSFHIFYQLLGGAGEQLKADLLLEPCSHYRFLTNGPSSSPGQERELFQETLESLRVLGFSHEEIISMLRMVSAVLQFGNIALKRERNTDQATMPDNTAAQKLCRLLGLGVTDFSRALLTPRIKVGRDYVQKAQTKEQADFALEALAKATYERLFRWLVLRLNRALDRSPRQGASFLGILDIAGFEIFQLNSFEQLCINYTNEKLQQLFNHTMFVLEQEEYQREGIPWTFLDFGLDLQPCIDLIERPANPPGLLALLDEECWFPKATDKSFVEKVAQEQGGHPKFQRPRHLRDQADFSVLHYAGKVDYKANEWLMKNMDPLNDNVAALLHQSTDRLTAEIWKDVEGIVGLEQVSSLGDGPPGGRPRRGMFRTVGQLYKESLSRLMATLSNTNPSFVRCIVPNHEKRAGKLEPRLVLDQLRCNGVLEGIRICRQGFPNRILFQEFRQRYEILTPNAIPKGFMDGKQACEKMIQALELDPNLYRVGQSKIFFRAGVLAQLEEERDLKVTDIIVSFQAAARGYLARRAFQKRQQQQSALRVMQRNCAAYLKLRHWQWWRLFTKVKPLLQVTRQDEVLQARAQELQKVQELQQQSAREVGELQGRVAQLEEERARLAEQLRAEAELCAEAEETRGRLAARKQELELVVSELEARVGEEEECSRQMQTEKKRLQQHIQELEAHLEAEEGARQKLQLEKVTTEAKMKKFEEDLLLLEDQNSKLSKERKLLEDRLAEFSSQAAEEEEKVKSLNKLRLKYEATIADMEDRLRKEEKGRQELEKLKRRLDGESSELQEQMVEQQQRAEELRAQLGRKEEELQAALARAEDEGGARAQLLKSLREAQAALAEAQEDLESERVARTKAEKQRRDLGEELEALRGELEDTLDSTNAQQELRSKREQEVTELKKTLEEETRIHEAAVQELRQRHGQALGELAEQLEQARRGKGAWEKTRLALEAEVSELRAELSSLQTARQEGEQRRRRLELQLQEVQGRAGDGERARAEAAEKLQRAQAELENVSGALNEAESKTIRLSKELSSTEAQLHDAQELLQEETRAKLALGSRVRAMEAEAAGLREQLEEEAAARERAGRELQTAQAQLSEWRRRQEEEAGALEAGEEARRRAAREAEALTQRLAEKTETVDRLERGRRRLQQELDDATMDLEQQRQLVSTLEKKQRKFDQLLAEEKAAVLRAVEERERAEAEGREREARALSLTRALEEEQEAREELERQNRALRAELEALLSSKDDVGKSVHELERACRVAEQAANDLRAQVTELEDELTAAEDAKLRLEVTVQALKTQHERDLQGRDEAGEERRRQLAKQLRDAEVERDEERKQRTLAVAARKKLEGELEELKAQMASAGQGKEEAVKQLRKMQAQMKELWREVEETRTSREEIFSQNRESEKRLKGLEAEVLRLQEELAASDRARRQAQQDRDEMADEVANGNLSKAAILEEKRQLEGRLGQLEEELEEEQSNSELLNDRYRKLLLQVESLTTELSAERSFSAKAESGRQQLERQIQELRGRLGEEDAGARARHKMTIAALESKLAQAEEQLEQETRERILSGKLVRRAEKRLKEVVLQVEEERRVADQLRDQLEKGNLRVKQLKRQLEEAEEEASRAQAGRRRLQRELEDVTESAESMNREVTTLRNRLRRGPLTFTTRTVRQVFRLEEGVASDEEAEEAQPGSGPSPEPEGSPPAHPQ
Chain of Aurora kinase B (Q96GD4 whole entry): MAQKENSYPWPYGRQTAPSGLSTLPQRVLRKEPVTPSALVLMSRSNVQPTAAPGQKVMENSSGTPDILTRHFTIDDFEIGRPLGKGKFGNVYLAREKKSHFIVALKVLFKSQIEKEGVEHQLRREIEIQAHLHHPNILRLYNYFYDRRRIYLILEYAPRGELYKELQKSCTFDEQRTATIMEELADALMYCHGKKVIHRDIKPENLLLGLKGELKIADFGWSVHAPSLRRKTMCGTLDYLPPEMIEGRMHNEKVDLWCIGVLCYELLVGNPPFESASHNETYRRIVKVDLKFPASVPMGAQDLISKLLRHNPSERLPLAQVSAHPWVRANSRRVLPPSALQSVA

Row | SMILES | Kd (Aurora kinase B) | Kd (Myosin-14) | Kd [1] | Kd [2] | Kd [3] | Kd [4]
1 | CO[C@H]1C[C@@H]2CC[C@@H](C)[C@@](O)(O2)C(=O)C(=O)N2CCCC[C@H]2C(=O)O[C@H]([C@H](C)C[C@@H]2CC[C@@H](OP(C)(C)=O)[C@H](OC)C2)CC(=O)[C@H](C)/C=C(\C)[C@@H](O)[C@@H](OC)C(=O)[C@H](C)C[C@H](C)/C=C/C=C/C=C/1C [RIDAFOROLIMUS] | > 30 µM (inactive) | > 30 µM (inactive) | > 30 µM (inactive) | > 30 µM (inactive) | > 30 µM (inactive) | > 30 µM (inactive)
2 | N#CC1(c2ccc(NC(=O)c3cccnc3NCc3ccncc3)cc2)CCCC1 [RIVOCERANIB] | > 30 µM (inactive) | > 30 µM (inactive) | > 30 µM (inactive) | > 30 µM (inactive) | > 30 µM (inactive) | > 30 µM (inactive)
3 | O=c1[nH]ccc2cc(OC3CCNCC3)ccc12 [SAR-407899 FREE BASE] | > 30 µM (inactive) | > 30 µM (inactive) | > 30 µM (inactive) | 0.019 µM (active) | > 30 µM (inactive) | > 30 µM (inactive)
4 | CN1CCN(CCOc2cc(OC3CCOCC3)c3c(Nc4c(Cl)ccc5c4OCO5)ncnc3c2)CC1 [SARACATINIB] | > 30 µM (inactive) | > 30 µM (inactive) | > 30 µM (inactive) | > 30 µM (inactive) | > 30 µM (inactive) | > 30 µM (inactive)
5 | Cn1cc(-c2cnn3c(N)c(Br)c([C@@H]4CCCNC4)nc23)cn1 [SCH-900776] | > 30 µM (inactive) | > 30 µM (inactive) | > 30 µM (inactive) | > 30 µM (inactive) | > 30 µM (inactive) | > 30 µM (inactive)
6 | CO[C@H]1C[C@@H]2CC[C@@H](C)[C@@](O)(O2)C(=O)C(=O)N2CCCC[C@H]2C(=O)O[C@H]([C@H](C)C[C@@H]2CC[C@@H](O)[C@H](OC)C2)CC(=O)[C@H](C)/C=C(\C)[C@@H](O)[C@@H](OC)C(=O)[C@H](C)C[C@H](C)/C=C/C=C/C=C/1C [SIROLIMUS] | > 30 µM (inactive) | > 30 µM (inactive) | > 30 µM (inactive) | > 30 µM (inactive) | > 30 µM (inactive) | > 30 µM (inactive)
7 | CCS(=O)(=O)c1cccc(-c2cc(C(=O)NC3CCN(C)CC3)c(C)c3[nH]c4ncc(C)cc4c23)c1 [TAK-901] | 0.044 µM (active) | > 30 µM (inactive) | > 30 µM (inactive) | 2.98 µM (active) | > 30 µM (inactive) | > 30 µM (inactive)
8 | CO[C@H]1C[C@@H]2CC[C@@H](C)[C@@](O)(O2)C(=O)C(=O)N2CCCC[C@H]2C(=O)O[C@H]([C@H](C)C[C@@H]2CC[C@@H](OC(=O)C(C)(CO)CO)[C@H](OC)C2)CC(=O)[C@H](C)/C=C(\C)[C@@H](O)[C@@H](OC)C(=O)[C@H](C)C[C@H](C)/C=C/C=C/C=C/1C [TEMSIROLIMUS] | > 30 µM (inactive) | > 30 µM (inactive) | > 30 µM (inactive) | > 30 µM (inactive) | > 30 µM (inactive) | > 30 µM (inactive)
9 | COc1cc2c(Nc3ccc(Cl)c(Cl)c3F)ncnc2cc1OC[C@@H]1C[C@@H]2CN(C)C[C@@H]2C1 [TESEVATINIB] | > 30 µM (inactive) | > 30 µM (inactive) | > 30 µM (inactive) | > 30 µM (inactive) | > 30 µM (inactive) | > 30 µM (inactive)
10 | O=C(Cc1ccc(-c2ccc(OCCN3CCOCC3)cc2)cn1)NCc1ccccc1 [TIRBANIBULIN] | > 30 µM (inactive) | > 30 µM (inactive) | > 30 µM (inactive) | > 30 µM (inactive) | > 30 µM (inactive) | > 30 µM (inactive)
11 | O=C1NC(=O)[C@@H](c2cn3c4c(cccc24)CCC3)[C@@H]1c1c[nH]c2ccccc12 [TIVANTINIB] | > 30 µM (inactive) | > 30 µM (inactive) | 0.017 µM | > 30 µM (inactive) | > 30 µM (inactive) | > 30 µM (inactive)
12 | C[C@@H](NC(=O)c1ncnc(N)c1Cl)c1ncc(C(=O)Nc2cc(C(F)(F)F)c(Cl)cn2)s1 [TOVORAFENIB] | > 30 µM (inactive) | > 30 µM (inactive) | > 30 µM (inactive) | > 30 µM (inactive) | > 30 µM (inactive) | > 30 µM (inactive)
13 | Cc1cc(Nc2ncnc3ccc(NC4=NC(C)(C)CO4)cc23)ccc1Oc1ccn2ncnc2c1 [TUCATINIB] | > 30 µM (inactive) | 0.188 µM | > 30 µM (inactive) | > 30 µM (inactive) | > 30 µM (inactive) | > 30 µM (inactive)
14 | CC(C)c1cc(CNc2nc(Nc3cc(C4CC4)[nH]n3)cc(N3CCN(C)CC3)n2)on1 [XL-228] | 0.004 µM (active) | > 30 µM (inactive) | > 30 µM (inactive) | 0.011 µM (active) | > 30 µM (inactive) | > 30 µM (inactive)
15 | C[C@@H](N)c1ccc(C(=O)Nc2ccnc3[nH]ccc23)cc1 [Y-39983] | > 30 µM (inactive) | > 30 µM (inactive) | > 30 µM (inactive) | 0.253 µM (active) | 6.03 µM (active) | > 30 µM (inactive)
16 | CN1C/C=C/CCOc2cccc(c2)-c2ccnc(n2)Nc2cccc(c2)C1 [ZOTIRACICLIB] | > 30 µM (inactive) | > 30 µM (inactive) | > 30 µM (inactive) | 1.69 µM (active) | 4.32 µM (active) | 2.86 µM (active)
